Where a SMILES comes first, the peptide text is derived from it. The star is where a group is joined. Myristoyl = CCCCCCCCCCCCCC(=O)*
Experiments:
[1] = tested on: CD44^hiCD24^lo CSCs in MDA-MB-231 cells; experiment: FACS analysis of CD44^hiCD24^lo cancer stem cells in MDA-MB-231 cells treated with P1 analogues; format: cell-based, human; details: 50 μM peptide, 48 hours; for CD44^hiCD24^lo CSCs (%) / COI, Live Single CD44^hiCD24^lo CSCs (Cell Count): n = 1; for Average Inhibition of CSCs (%) / CD44^hiCD24^lo CSCs (%) Repeat 1 / CD44^hiCD24^lo CSCs (%) Repeat 2 / CD44^hiCD24^lo CSCs (%) Repeat 3: n = 3
Procedure: Analogues of P1 (Table 6) were designed and synthesized in accordance with the procedure of Example 5. The ability of these analogues to inhibit cancer stem cells was determined using FACS analysis on MDA-MB-231 cells, which constitutively contain approximately 90% CD44^hiCD24^lo cancer stem cells, treated with the peptides.
(§1) Non-adherent cells were removed during the washing steps.

MDA-MB-231 cells = format: cell-based, human; details: 50 μM peptide, 48 hours, n = 1
Source text: as §1
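Wherever COI, Live Single Cells (Cell Count) is given: live means Hoechst-negative events among single cells.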

Row | Structure (SMILES) | Inhibition of CSCs (%) Repeat 1 [1] | Inhibition of CSCs (%) Repeat 2 [1] | Inhibition of CSCs (%) Repeat 3 [1] | CD44^hiCD24^lo CSCs (%) [1] | COI, Live Single CD44^hiCD24^lo CSCs (Cell Count) [1] | Average Inhibition of CSCs (%) [1] | CD44^hiCD24^lo CSCs (%) Repeat 1 [1] | CD44^hiCD24^lo CSCs (%) Repeat 2 [1] | CD44^hiCD24^lo CSCs (%) Repeat 3 [1] | COI (Cell Count) (MDA-MB-231 cells) | COI, Live Single Cells (Cell Count) (MDA-MB-231 cells) | COI, Single (Cell Count) (MDA-MB-231 cells) | Total Cell Count (MDA-MB-231 cells)
1 | CCCCCCCCCCCCCC(=O)N[C@H](C(=O)N[C@@H](Cc1ccccc1)C(=O)N[C@H](C(=O)N[C@@H](Cc1ccccc1)C(=O)N[C@@H](CCCNC(=N)N)C(=O)N[C@@H](CC(C)C)C(=O)N[C@@H](CCCNC(=N)N)C(=O)N[C@@H](CCCCN)C(=O)N[C@@H](C)C(=O)N[C@@H](CCCNC(=N)N)C(=O)N[C@@H](CCSC)C(=O)N[C@@H](CCSC)C(=O)N[C@@H](CC(=O)O)C(=O)N[C@H](C(=O)N[C@@H](CCCCN)C(=O)N[C@@H](CCCCN)C(N)=O)C(C)C)[C@@H](C)CC)[C@@H](C)O [Peptide 2815310, Myristoyl-TFIFRLRKARMMDVKK-NH2] (Myristoyl-TFIFRLRKARMMDVKK-NH2) | 38.81% | 39.40% | 41.35% | 57.14% | 4 | 39.85% | 54.84% | 54.37% | 52.63% | 18 | 7 | 16 | 8883
2 | CCCCCCCCCCCCCC(=O)N[C@H](C(=O)N[C@@H](Cc1ccccc1)C(=O)N[C@H](C(=O)N[C@@H](Cc1ccccc1)C(=O)N[C@@H](CCCNC(=N)N)C(=O)N[C@@H](CC(C)C)C(=O)N[C@@H](CCCNC(=N)N)C(=O)N[C@@H](CCCCN)C(=O)NCC(=O)N[C@@H](CCCNC(=N)N)C(=O)N[C@@H](CCSC)C(=O)N[C@@H](C)C(=O)N[C@@H](CC(=O)O)C(=O)N[C@H](C(=O)N[C@@H](CCCCN)C(=O)N[C@@H](CCCCN)C(N)=O)C(C)C)[C@@H](C)CC)[C@@H](C)O [Peptide 2815313, Myristoyl-TFIFRLRKGRMADVKK-NH2] (Myristoyl-TFIFRLRKGRMADVKK-NH2) | 22.34% | 23.02% | 27.96% | 61.54% | 80 | 24.44% | 69.60% | 69.06% | 64.65% | 165 | 130 | 148 | 8909
3 | CCCCCCCCCCCCCC(=O)N[C@H](C(=O)N[C@@H](Cc1ccccc1)C(=O)N[C@H](C(=O)N[C@@H](Cc1ccccc1)C(=O)N[C@@H](CCCNC(=N)N)C(=O)N[C@@H](CC(C)C)C(=O)N[C@@H](CCCNC(=N)N)C(=O)N[C@@H](CCCCN)C(=O)NCC(=O)N[C@@H](CCCNC(=N)N)C(=O)N[C@@H](CCSC)C(=O)N[C@@H](CCSC)C(=O)N[C@@H](CC(=O)O)C(=O)N[C@@H](C)C(=O)N[C@@H](CCCCN)C(=O)N[C@@H](CCCCN)C(N)=O)[C@@H](C)CC)[C@@H](C)O [Peptide 2815315, Myristoyl-TFIFRLRKGRMMDAKK-NH2] (Myristoyl-TFIFRLRKGRMMDAKK-NH2) | 86.74% | 82.99% | 83.97% | 18.75% | 3 | 84.57% | 11.89% | 15.26% | 14.39% | 51 | 16 | 41 | 12122
4 | CCCCCCCCCCCCCC(=O)N[C@H](C(=O)N[C@@H](Cc1ccccc1)C(=O)N[C@H](C(=O)N[C@@H](Cc1ccccc1)C(=O)N[C@@H](CCCNC(=N)N)C(=O)N[C@@H](CC(C)C)C(=O)N[C@@H](CCCNC(=N)N)C(=O)N[C@@H](CCCCN)C(=O)NCC(=O)N[C@@H](CCCNC(=N)N)C(=O)N[C@@H](CCSC)C(=O)N[C@@H](CCSC)C(=O)N[C@@H](CC(=O)O)C(=O)N[C@H](C(=O)N[C@@H](C)C(=O)N[C@@H](CCCCN)C(N)=O)C(C)C)[C@@H](C)CC)[C@@H](C)O [Peptide 2815316, Myristoyl-TFIFRLRKGRMMDVAK-NH2] (Myristoyl-TFIFRLRKGRMMDVAK-NH2) | 40.88% | 45.01% | 45.00% | 50.00% | 2 | 43.63% | 52.99% | 49.33% | 49.35% | 22 | 4 | 20 | 10777
5 | CCCCCCCCCCCCCC(=O)N[C@H](C(=O)N[C@@H](Cc1ccccc1)C(=O)N[C@H](C(=O)N[C@@H](Cc1ccccc1)C(=O)N[C@@H](CCCNC(=N)N)C(=O)N[C@@H](CC(C)C)C(=O)N[C@@H](CCCNC(=N)N)C(=O)N[C@@H](CCCCN)C(=O)NCC(=O)N[C@@H](CCCNC(=N)N)C(=O)N[C@@H](CCSC)C(=O)N[C@@H](CCSC)C(=O)N[C@@H](CC(=O)O)C(=O)N[C@H](C(=O)N[C@@H](CCCCN)C(=O)N[C@@H](C)C(N)=O)C(C)C)[C@@H](C)CC)[C@@H](C)O [Peptide 2815317, Myristoyl-TFIFRLRKGRMMDVKA-NH2] (Myristoyl-TFIFRLRKGRMMDVKA-NH2) | 47.53% | 46.46% | 63.38% | 40.91% | 18 | 52.46% | 47.02% | 48.03% | 32.86% | 88 | 44 | 79 | 8821
6 | CCCCCCCCCCCCCC(=O)N[C@H](C(=O)N[C@@H](Cc1ccccc1)C(=O)N[C@H](C(=O)N[C@@H](Cc1ccccc1)C(=O)N[C@@H](CCCNC(=N)N)C(=O)N[C@@H](CC(C)C)C(=O)N[C@@H](CCCNC(=N)N)C(=O)N[C@@H](CCCCN)C(=O)NCC(=O)N[C@@H](C)C(=O)N[C@@H](CCSC)C(=O)N[C@@H](CCSC)C(=O)N[C@@H](CC(=O)O)C(=O)N[C@H](C(=O)N[C@@H](CCCCN)C(=O)N[C@@H](CCCCN)C(N)=O)C(C)C)[C@@H](C)CC)[C@@H](C)O [Peptide 2815318, Myristoyl-TFIFRLRKGAMMDVKK-NH2] (Myristoyl-TFIFRLRKGAMMDVKK-NH2) | 54.80% | 54.73% | 55.59% | 53.03% | 70 | 55.04% | 40.51% | 40.61% | 39.86% | 183 | 132 | 142 | 3480
7 | CCCCCCCCCCCCCC(=O)N[C@@H](C)C(=O)N[C@H](C(=O)N[C@@H](Cc1ccccc1)C(=O)N[C@H](C(=O)N[C@@H](Cc1ccccc1)C(=O)N[C@@H](CCCNC(=N)N)C(=O)N[C@@H](CC(C)C)C(=O)N[C@@H](CCCNC(=N)N)C(=O)N[C@@H](CCCCN)C(=O)NCC(=O)N[C@@H](CCCNC(=N)N)C(=O)N[C@@H](CCSC)C(=O)N[C@@H](CCSC)C(=O)N[C@@H](CC(=O)O)C(=O)N[C@H](C(=O)N[C@@H](CCCCN)C(=O)N[C@@H](CCCCN)C(N)=O)C(C)C)[C@@H](C)CC)[C@@H](C)O [Peptide 2853801, Myristoyl-ATFIFRLRKGRMMDVKK-NH2] (Myristoyl-ATFIFRLRKGRMMDVKK-NH2) | 93.01% | 94.77% | 94.78% | 5.39% | 102 | 94.19% | 6.27% | 4.69% | 4.68% | 2375 | 1894 | 2024 | 8558

— patent US20200339691A1, “PROTEINACEOUS MOLECULES AND USES THEREFOR” (priority 2018, published 2020)
